Measured values as given in patent US20260124184A1, “ONCE DAILY ALDOSTERONE SYNTHASE INHIBITOR (R)-(+)-5-(P-CYANOPHENYL)-5,6,7,8-TETRAHYDROIMIDAZO[L,5-A]PYRIDINE” (priority 2022, published 2026).
Like-named read-outs stand apart in the source and are kept apart here.

System: patients with primary aldosteronism
Experimental: A double-blind, randomized, Phase 2 trial was conducted between November 2019 and June 2022 at 11 centres in Italy, Switzerland and the Netherlands (NCT04007406). […] Patients requiring fixed-dose antihypertensive therapy continued treatment throughout the study; steroid therapies, β-adrenergic and renin-angiotensin-aldosterone system blockers were not permitted. At 14-day intervals, office blood pressures were recorded and blood samples were taken for measurement of steroid and peptide hormones and electrolytes at a central laboratory.

[1] = 4 mg once daily, n=10, Day 1 (baseline)
[2] = 4 mg once daily, n=10, Day 70 (after placebo withdrawal)
[3] = 8 mg once daily, n=11, Day 1 (baseline)
[4] = 8 mg once daily, n=11, Day 70 (after placebo withdrawal)

(R)-(+)-5-(p-cyanophenyl)-5,6,7,8-tetrahydroimidazolium[1,5-a]pyridine dihydrogen phosphate [dexfadrostat phosphate]
plasma potassium, mean [1]: 3.36 nmol/L | plasma potassium, median [1]: 3.35 nmol/L | plasma potassium, mean (4 mg once daily, n=10, Day 14): 4.27 nmol/L | plasma potassium, median (4 mg once daily, n=10, Day 14): 4.35 nmol/L | plasma potassium, mean (4 mg once daily, n=10, Day 28): 3.85 nmol/L | plasma potassium, median (4 mg once daily, n=10, Day 28): 3.85 nmol/L | plasma potassium, mean (4 mg once daily, n=10, Day 42): 4.07 nmol/L | plasma potassium, median (4 mg once daily, n=10, Day 42): 4.15 nmol/L | plasma potassium, mean (4 mg once daily, n=10, Day 56): 4.10 nmol/L | plasma potassium, median (4 mg once daily, n=10, Day 56): 4.20 nmol/L | plasma potassium, mean [2]: 3.58 nmol/L | plasma potassium, median [2]: 3.60 nmol/L | plasma potassium, mean [3]: 3.55 nmol/L | plasma potassium, median [3]: 3.50 nmol/L | plasma potassium, mean (8 mg once daily, n=11, Day 14): 4.32 nmol/L | plasma potassium, median (8 mg once daily, n=11, Day 14): 4.30 nmol/L | plasma potassium, mean (8 mg once daily, n=11, Day 28): 4.04 nmol/L | plasma potassium, median (8 mg once daily, n=11, Day 28): 4.00 nmol/L | plasma potassium, mean (8 mg once daily, n=11, Day 42): 3.99 nmol/L | plasma potassium, median (8 mg once daily, n=11, Day 42): 3.90 nmol/L | plasma potassium, mean (8 mg once daily, n=11, Day 56): 4.10 nmol/L | plasma potassium, median (8 mg once daily, n=11, Day 56): 4.10 nmol/L | plasma potassium, mean [4]: 3.76 nmol/L | plasma potassium, median [4]: 3.80 nmol/L | plasma potassium upon drug withdrawal (Day 70, after 14-day placebo withdrawal): potassium values returned towards baseline levels | plasma potassium concentration, mean (baseline potassium <3.6 mmol/L, 4 mg QD, Day 1 (baseline)): 3.1 mmol/L | plasma potassium concentration, mean (baseline potassium <3.6 mmol/L, 4 mg QD, Day 14): 4.1 mmol/L | plasma potassium concentration, mean (baseline potassium <3.6 mmol/L, 4 mg QD, Day 28): 3.8 mmol/L | plasma potassium concentration, mean (baseline potassium <3.6 mmol/L, 4 mg QD, Day 42): 3.9 mmol/L | plasma potassium concentration, mean (baseline potassium <3.6 mmol/L, 4 mg QD, Day 56): 4.0 mmol/L | plasma potassium concentration, mean (baseline potassium <3.6 mmol/L, 4 mg QD, Day 70 (placebo withdrawal)): 3.3 mmol/L | plasma potassium concentration, mean (baseline potassium <3.6 mmol/L, 8 mg QD, Day 1 (baseline)): 3.3 mmol/L | plasma potassium concentration, mean (baseline potassium <3.6 mmol/L, 8 mg QD, Day 14): 4.2 mmol/L | plasma potassium concentration, mean (baseline potassium <3.6 mmol/L, 8 mg QD, Day 28): 3.9 mmol/L | plasma potassium concentration, mean (baseline potassium <3.6 mmol/L, 8 mg QD, Day 42): 4.0 mmol/L | plasma potassium concentration, mean (baseline potassium <3.6 mmol/L, 8 mg QD, Day 56): 4.0 mmol/L | plasma potassium concentration, mean (baseline potassium <3.6 mmol/L, 8 mg QD, Day 70 (placebo withdrawal)): 3.7 mmol/L | plasma potassium concentration, mean (baseline potassium <3.6 mmol/L, 12 mg QD, Day 1 (baseline)): 3.3 mmol/L | plasma potassium concentration, mean (baseline potassium <3.6 mmol/L, 12 mg QD, Day 14): 3.9 mmol/L | plasma potassium concentration, mean (baseline potassium <3.6 mmol/L, 12 mg QD, Day 28): 4.0 mmol/L | plasma potassium concentration, mean (baseline potassium <3.6 mmol/L, 12 mg QD, Day 42): 4.1 mmol/L | plasma potassium concentration, mean (baseline potassium <3.6 mmol/L, 12 mg QD, Day 56): 3.8 mmol/L | plasma potassium concentration, mean (baseline potassium <3.6 mmol/L, 12 mg QD, Day 70 (placebo withdrawal)): 3.7 mmol/L | plasma potassium concentration, mean (baseline potassium ≤3.0 mmol/L, all doses QD, Day 1 (baseline)): 2.9 mmol/L | plasma potassium concentration, mean (baseline potassium ≤3.0 mmol/L, all doses QD, Day 14): 3.9 mmol/L | plasma potassium concentration, mean (baseline potassium ≤3.0 mmol/L, all doses QD, Day 28): 3.9 mmol/L | plasma potassium concentration, mean (baseline potassium ≤3.0 mmol/L, all doses QD, Day 42): 4.0 mmol/L | plasma potassium concentration, mean (baseline potassium ≤3.0 mmol/L, all doses QD, Day 56): 3.9 mmol/L | plasma potassium concentration, mean (baseline potassium ≤3.0 mmol/L, all doses QD, Day 70 (placebo withdrawal)): 3.5 mmol/L | plasma potassium concentration, mean (baseline potassium ≥3.6 mmol/L, 4 mg QD, Day 1 (baseline)): 3.8 mmol/L | plasma potassium concentration, mean (baseline potassium ≥3.6 mmol/L, 4 mg QD, Day 14): 4.6 mmol/L | plasma potassium concentration, mean (baseline potassium ≥3.6 mmol/L, 4 mg QD, Day 28): 4.0 mmol/L | plasma potassium concentration, mean (baseline potassium ≥3.6 mmol/L, 4 mg QD, Day 42): 4.3 mmol/L | plasma potassium concentration, mean (baseline potassium ≥3.6 mmol/L, 4 mg QD, Day 56): 4.3 mmol/L | plasma potassium concentration, mean (baseline potassium ≥3.6 mmol/L, 4 mg QD, Day 70 (placebo withdrawal)): 4.0 mmol/L | plasma potassium concentration, mean (baseline potassium ≥3.6 mmol/L, 8 mg QD, Day 1 (baseline)): 3.8 mmol/L | plasma potassium concentration, mean (baseline potassium ≥3.6 mmol/L, 8 mg QD, Day 14): 4.3 mmol/L | plasma potassium concentration, mean (baseline potassium ≥3.6 mmol/L, 8 mg QD, Day 28): 4.1 mmol/L | plasma potassium concentration, mean (baseline potassium ≥3.6 mmol/L, 8 mg QD, Day 42): 3.9 mmol/L | plasma potassium concentration, mean (baseline potassium ≥3.6 mmol/L, 8 mg QD, Day 56): 4.1 mmol/L | plasma potassium concentration, mean (baseline potassium ≥3.6 mmol/L, 8 mg QD, Day 70 (placebo withdrawal)): 3.9 mmol/L | plasma potassium concentration, mean (baseline potassium ≥3.6 mmol/L, 12 mg QD, Day 1 (baseline)): 3.9 mmol/L | plasma potassium concentration, mean (baseline potassium ≥3.6 mmol/L, 12 mg QD, Day 14): 4.0 mmol/L | plasma potassium concentration, mean (baseline potassium ≥3.6 mmol/L, 12 mg QD, Day 28): 4.1 mmol/L | plasma potassium concentration, mean (baseline potassium ≥3.6 mmol/L, 12 mg QD, Day 42): 4.0 mmol/L | plasma potassium concentration, mean (baseline potassium ≥3.6 mmol/L, 12 mg QD, Day 56): 3.9 mmol/L | plasma potassium concentration, mean (baseline potassium ≥3.6 mmol/L, 12 mg QD, Day 70 (placebo withdrawal)): 3.7 mmol/L | plasma potassium concentration, mean (baseline ≤3.0 mmol/L despite potassium supplements, all doses QD, Day 1 (baseline)): 3.2 mmol/L | plasma potassium concentration, mean (baseline ≤3.0 mmol/L despite potassium supplements, all doses QD, Day 14): 4.0 mmol/L | plasma potassium concentration, mean (baseline ≤3.0 mmol/L despite potassium supplements, all doses QD, Day 28): 4.1 mmol/L | plasma potassium concentration, mean (baseline ≤3.0 mmol/L despite potassium supplements, all doses QD, Day 42): 4.2 mmol/L
